The results in this text go back to PMC10020447, “Potent acyl-CoA synthetase 10 inhibitors kill Plasmodium falciparum by disrupting triglyceride formation” (Nature Communications, 2023).

The test system of assay [1] is T1, Plasmodium falciparum 3D7.
T1 construct: 3D7 parental line, asexual blood stage
The assay is described as follows: microbe, parasite or virus in culture. Conditions: 3D7, Erythrocyte. On the set-up: species or system P. falciparum 3D7 in human erythrocytes; Asexual blood stage growth inhibition dose response of parental 3D7 parasites, EC50. From the text: Fig. 1 Gene-edited PfACS10 and PfACS11 lines phenocopy parasite lines selected to become resistant to a range of antiplasmodial chemotypes. a Chemical structures of the compounds used in drug selections. b–d Dose response curves for a representative example of the parental 3D7 line (black), the selected lines (ACS11E668K_S, ACS11F387V_S, and ACS10M300I_S) and the genetically edited lines (ACS11E668K_C, ACS11F387V_C, and ACS10M300I_C) against the compound used to select for the resistant lines. At least three biological replicates were run for each strain in technical triplicates. Shown are the average ±SD and the non-linear regression curve fit for one biological assay run in triplicate. Statistical significances for EC50 are reported in Supplementary Data 1 and source data are provided as a Source Data file. Previous work by the MalDA consortium identified MMV019719 and MMV665924 as two new phenotypic hits from the chemically diverse Medicines for Malaria Venture (MMV) Malaria Box[8],[12]. […] To verify the role of these mutations in conferring resistance to these two compounds (resistance is defined here as a more than 2-fold shift in EC50 values in in vitro culture compared to the parental line), we used CRISPR/Cas9 technology to perform allelic replacements of a subset of the mutations observed (Supplementary Fig. 1 and Supplementary Table 1). Using the 3D7 parental line, we introduced the individual point mutations F387V or E668K into PfACS11 and M300I into PfACS10, yielding the gene-edited lines ACS11F387V_C, ACS11E668K_C, and ACS10M300I_C. These parasites phenocopied the increase in EC50 values seen in drug-selected compared to wildtype parasites (Fig. 1a–c and Supplementary Data 1). These findings confirm that the mutations in PfACS10 and PfACS11 identified by resistance selections with MMV019719 and MMV665924 are sufficient to reduce susceptibility to these compounds. […] MMV019719, MMV665924, and MMV897615 were freely available as part of the Medicines for Malaria Venture’s (MMV) Malaria Box. Triacsin C was purchased from Sigma-Aldrich (St. Louis, MO, ref. T4540). The 3D7 P. falciparum strain was originally obtained through MR4 as part of the BEI Resources Repository, NIAID, NIH: 3D7, MRA-102, deposited by D. J. Carucci. We also used 3D7- IG06 (a fast-growing 3D7 clone)[64] donated by Daniel Goldberg and Dd2-Polδ[23] donated by Marcus Lee. The Malawi parasites (CF04.008 10B and CF04.009 6D and 1 G, two different patient isolates that were subcloned after culture adaption) were kindly donated by Danny Milner[26]. Parasites were cultured by standard methods[65] in RPMI 1640 medium supplemented with 28 mM NaHCO3, 25 mM HEPES, 400 μM hypoxanthine, 25 μg/mL gentamicin, and 0.5% AlbuMAX II (Life Technologies, Carlsbad, CA 11021-045). The human erythrocytes were sourced ethically, and their research use was in accord with the terms of approved protocol.

Assay [2] has as its system T2, Plasmodium falciparum PolD (Dd2-Polδ).
T2 construct: Dd2-Polδ parental hypermutator line, wild-type PfACS10, asexual blood stage
The assay is described as follows: microbe, parasite or virus in culture. On the set-up: species or system P. falciparum Dd2-Polδ in human erythrocytes; Parasite survival dose response by flow cytometry with SYBR Green and MitoTracker Deep Red, EC50. Particulars: DD2, Erythrocyte, 72 h. As to the method: To define the EC50 of parasites, ring-stage cultures at 0.2% parasitemia and 1% hematocrit were exposed for 72 h to a range of ten drug concentrations that were 2-fold serially diluted in duplicates along with DMSO controls. Parasite survival was assessed by flow cytometry on an iQue flow cytometer (Sartorius) using SYBR Green and MitoTracker Deep Red FM (Life Technologies) as nuclear stain and vital dyes respectively. Fig. 2 Mutations in PfACS10 can cause collateral sensitivity to distinct chemotypes. Mean EC50 ± SD values for strains containing mutations in PfACS10 selected in the Dd2-Polδ line (A268D, A268V, and F427L) and in 3D7 (M300I), are shown for MMV897615, MMV665924, and MMV019719. Assays were run in triplicate and at least repeated twice. ANOVA with Dunnett post-tests compared mutations in the Dd2-Polδ line, a p < 0.001, b p = 0.005. Two-sided unpaired Student’s t test compared 3D7 and ACS10M300I_C. c p = 0.0003, d p = 0.0000008, e p = 0.0016. Source data are provided as a Source Data file and in Supplementary Data 1. More recently, we performed selections in a hypermutator P. falciparum line (Dd2-Polδ[23]) with MMV897615, which yielded three novel mutations in PfACS10 that confer at least a seven-fold increase in resistance (ACS10A268D, ACS10A268V, and ACS10F427L, Fig. 2 and Supplementary Data 1 and 3). […]

Read-outs that look alike come from different tables or passages of the source.

Regarding `CCN(CC)Cc1cc(Nc2ccnc3cc(Cl)ccc23)ccc1O` [amodiaquine], in assay [1] (read-out: Amodiaquin (ADQ) / EC50 [nM]), the EC50 worked out at 4.34 nM.
Regarding `C=C[C@H]1CN2CC[C@H]1C[C@H]2[C@H](O)c1ccnc2ccc(OC)cc12` [quinine], the EC50 in assay [1] (read-out: Quinine (QN) / EC50 [nM]) worked out at 37.3 nM.
Take `CCc1cccc(CNC(=O)c2nc3cccc(COCc4ccc(C(=O)O)cc4)c3c(=O)[nH]2)c1` [19f, MMV897615]: the EC50 in assay [2] (read-out: MMV897615 / EC50 [nM] (b) / EC50 [nM] (c)) was 39.6 nM; in assay [1] (read-out: MMV897615 / EC50 [nM] (b)), 52.9 nM.
As to `CCC/C=C/C/C=C/C=C/C=N/NN=O` [Triacsin C], in assay [1] (read-out: Triacsin / EC50 [nM]), the EC50 turned out to be 549 nM.
In the case of `COc1ccc(C(=O)C2CC2c2ccc(Cl)cc2)cc1` (stereo not drawn) [MMV665924], the EC50 in assay [2] (read-out: MMV665924 / EC50 [nM] (a) / EC50 [nM] (c)) was 1360 nM; in assay [1] (read-out: MMV665924 / EC50 [nM] (a)), 340 nM.
With `O=C1C(O)=C([C@H]2CC[C@H](c3ccc(Cl)cc3)CC2)C(=O)c2ccccc21` [atovaquone], the EC50 in assay [1] (read-out: Atovaquone (ATQ) / EC50 [nM]) turned out to be 0.287 nM.
As for `O[C@@H](c1cc(C(F)(F)F)nc2c(C(F)(F)F)cccc12)[C@H]1CCCCN1` (racemic) [mefloquine], in assay [1] (read-out: Mefloquine (MQ) / EC50 [nM]), the EC50 was 15.3 nM.
